Results from the supplement of paper PMC10307832.

Tests used:
Experiment in all cases: relative viability (nuclei count vs DMSO), 5 days (fraction); higher = more cells survive
[1] = tested on: ChaGo-K-1
Outline: (§1)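 Lung cancer cell lines were pin-tool dosed in 1536-well plates on the day after seeding, with either a lone drug or a fixed anchor-drug dose plus five library-drug doses (not always all listed) in √10 steps. Nuclei were counted on 4× images after 5 days. Relative viability is the ratio of treated-well to vehicle-well nuclei counts, with each value a median of duplicate plates.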

[2] = tested on: EKVX
Outline: as §1

[3] = tested on: EMC-BAC-2
Outline: as §1

[4] = tested on: H3255
Outline: as §1

[5] = tested on: HARA
Outline: as §1

[6] = tested on: HCC-15
Outline: as §1

[7] = tested on: HCC-827
Outline: as §1

[8] = tested on: LC-2-ad
Outline: as §1

[9] = tested on: LCLC-97TM1
Outline: as §1

[10] = tested on: LU99A
Outline: as §1

[11] = tested on: NCI-H1437
Outline: as §1

[12] = tested on: NCI-H1792
Outline: as §1

[13] = tested on: NCI-H1793
Outline: as §1

[14] = tested on: NCI-H1915
Outline: as §1

[15] = tested on: NCI-H1944
Outline: as §1

[16] = tested on: NCI-H2126
Outline: as §1

[17] = tested on: NCI-H23
Outline: as §1

[18] = tested on: NCI-H322M
Outline: as §1

[19] = tested on: NCI-H441
Outline: as §1

[20] = tested on: NCI-H460
Outline: as §1

[21] = tested on: NCI-H661
Outline: as §1

[22] = tested on: PC-3 [JPC-3]
Outline: as §1

[23] = tested on: SK-LU-1
Outline: as §1

## O=C(O)CCCCC(CCSCc1ccccc1)SCc1ccccc1 (stereo not drawn) [CPI-613] + Nc1ncn([C@H]2C[C@H](O)[C@@H](CO)O2)c(=O)n1 [Decitabine] (partner 2 µM)
[1]; first compound 5 µM
  relative viability: 0.489
[1]; first compound 15.81 µM
  relative viability: 0.517
[1]; first compound 50 µM
  relative viability: 0.514
[1]; first compound 158.11 µM
  relative viability: 0.274
[1]; first compound 500 µM
  relative viability: 0.161
[2]; first compound 5 µM
  relative viability: 0.29
[2]; first compound 15.81 µM
  relative viability: 0.348
[2]; first compound 50 µM
  relative viability: 0.423
[2]; first compound 500 µM
  relative viability: 0.397
[3]; first compound 5 µM
  relative viability: 0.982
[3]; first compound 15.81 µM
  relative viability: 0.9
[3]; first compound 50 µM
  relative viability: 0.942
[3]; first compound 158.11 µM
  relative viability: 0.74
[3]; first compound 500 µM
  relative viability: 0.632
[4]; first compound 5 µM
  relative viability: 0.626
[4]; first compound 15.81 µM
  relative viability: 0.537
[4]; first compound 50 µM
  relative viability: 0.665
[4]; first compound 158.11 µM
  relative viability: 0.566
[4]; first compound 500 µM
  relative viability: 0.569
[5]; first compound 5 µM
  relative viability: 0.494
[5]; first compound 15.81 µM
  relative viability: 0.467
[5]; first compound 50 µM
  relative viability: 0.575
[5]; first compound 158.11 µM
  relative viability: 0.289
[5]; first compound 500 µM
  relative viability: 0.111
[6]; first compound 5 µM
  relative viability: 0.594
[6]; first compound 15.81 µM
  relative viability: 0.592
[6]; first compound 50 µM
  relative viability: 0.547
[6]; first compound 158.11 µM
  relative viability: 0.265
[6]; first compound 500 µM
  relative viability: 0.0057
[7]; first compound 5 µM
  relative viability: 0.363
[7]; first compound 15.81 µM
  relative viability: 0.31
[7]; first compound 50 µM
  relative viability: 0.359
[7]; first compound 158.11 µM
  relative viability: 0.301
[7]; first compound 500 µM
  relative viability: 0.29
[8]; first compound 5 µM
  relative viability: 0.781
[8]; first compound 15.81 µM
  relative viability: 0.859
[8]; first compound 50 µM
  relative viability: 0.705
[8]; first compound 158.11 µM
  relative viability: 0.578
[8]; first compound 500 µM
  relative viability: 0.0132
[9]; first compound 5 µM
  relative viability: 0.251
[9]; first compound 15.81 µM
  relative viability: 0.213
[9]; first compound 50 µM
  relative viability: 0.261
[9]; first compound 158.11 µM
  relative viability: 0.0572
[9]; first compound 500 µM
  relative viability: 0.051
[10]; first compound 5 µM
  relative viability: 0.886
[10]; first compound 15.81 µM
  relative viability: 0.79
[10]; first compound 50 µM
  relative viability: 0.815
[10]; first compound 158.11 µM
  relative viability: 0.79
[10]; first compound 500 µM
  relative viability: 0.219
[11]; first compound 5 µM
  relative viability: 0.491
[11]; first compound 15.81 µM
  relative viability: 0.542
[11]; first compound 50 µM
  relative viability: 0.567
[11]; first compound 158.11 µM
  relative viability: 0.207
[11]; first compound 500 µM
  relative viability: 0.0486
[12]; first compound 5 µM
  relative viability: 0.571
[12]; first compound 15.81 µM
  relative viability: 0.449
[12]; first compound 50 µM
  relative viability: 0.572
[12]; first compound 158.11 µM
  relative viability: 0.253
[12]; first compound 500 µM
  relative viability: 0.0627
[13]; first compound 5 µM
  relative viability: 0.468
[13]; first compound 15.81 µM
  relative viability: 0.51
[13]; first compound 50 µM
  relative viability: 0.539
[13]; first compound 158.11 µM
  relative viability: 0.25
[13]; first compound 500 µM
  relative viability: 0.108
[14]; first compound 5 µM
  relative viability: 0.272
[14]; first compound 15.81 µM
  relative viability: 0.266
[14]; first compound 50 µM
  relative viability: 0.256
[14]; first compound 158.11 µM
  relative viability: 0.235
[14]; first compound 500 µM
  relative viability: 0.114
[15]; first compound 5 µM
  relative viability: 0.429
[15]; first compound 15.81 µM
  relative viability: 0.406
[15]; first compound 50 µM
  relative viability: 0.395
[15]; first compound 158.11 µM
  relative viability: 0.277
[15]; first compound 500 µM
  relative viability: 0.168
[16]; first compound 5 µM
  relative viability: 0.536
[16]; first compound 15.81 µM
  relative viability: 0.578
[16]; first compound 50 µM
  relative viability: 0.599
[16]; first compound 158.11 µM
  relative viability: 0.188
[16]; first compound 500 µM
  relative viability: 0.132
[17]; first compound 5 µM
  relative viability: 0.34
[17]; first compound 15.81 µM
  relative viability: 0.321
[17]; first compound 50 µM
  relative viability: 0.326
[17]; first compound 158.11 µM
  relative viability: 0.155
[17]; first compound 500 µM
  relative viability: 0.0289
[18]; first compound 5 µM
  relative viability: 0.65
[18]; first compound 15.81 µM
  relative viability: 0.656
[18]; first compound 50 µM
  relative viability: 0.664
[18]; first compound 158.11 µM
  relative viability: 0.767
[18]; first compound 500 µM
  relative viability: 0.703
[19]; first compound 5 µM
  relative viability: 0.261
[19]; first compound 15.81 µM
  relative viability: 0.253
[19]; first compound 50 µM
  relative viability: 0.231
[19]; first compound 158.11 µM
  relative viability: 0.148
[19]; first compound 500 µM
  relative viability: 0.0077
[20]; first compound 5 µM
  relative viability: 0.513
[20]; first compound 15.81 µM
  relative viability: 0.396
[20]; first compound 50 µM
  relative viability: 0.456
[20]; first compound 158.11 µM
  relative viability: 0.115
[20]; first compound 500 µM
  relative viability: 0.0075
[21]; first compound 5 µM
  relative viability: 0.547
[21]; first compound 15.81 µM
  relative viability: 0.49
[21]; first compound 50 µM
  relative viability: 0.577
[21]; first compound 158.11 µM
  relative viability: 0.381
[21]; first compound 500 µM
  relative viability: 0.0993
[22]; first compound 5 µM
  relative viability: 0.799
[22]; first compound 50 µM
  relative viability: 0.879
[22]; first compound 158.11 µM
  relative viability: 0.716
[22]; first compound 500 µM
  relative viability: 0.622
[23]; first compound 5 µM
  relative viability: 0.693
[23]; first compound 15.81 µM
  relative viability: 0.527
[23]; first compound 50 µM
  relative viability: 0.533
[23]; first compound 158.11 µM
  relative viability: 0.314
[23]; first compound 500 µM
  relative viability: 0.0957
